Data from a melting point compilation (Tetko et al.; mined from patent text by program, amines drawn as free bases though some values may be those of a salt).

First: CN1C(=O)C2C3C=CC(CC3)C2S1=O (stereo not given)
Second: Cc1cc2c(cc1C1=NNC(=O)CC1C)N(C)C(=O)CO2 (stereo not given)
The melting point of the first is lower: 118 to 120 °C for the first, 180 to 182 °C for the second.

First: COC(=O)CCc1cc2nc(Cl)ccc2n1S(=O)(=O)c1cccc2cccnc12
Second: CC(=NO)c1ccc2nnn(Cc3ccc4ncccc4c3)c2n1
The melting point of the first is lower: 120 °C for the first, 259 to 261 °C for the second.

Compared with `Fc1ccccc1NC(=S)NCc1ccncc1`, `Cc1ccccc1C(=O)NC(NC(=S)Nc1cccnc1)C(C)(C)C` (stereo not given) is higher in melting point: 145 °C for the first, 186 to 187 °C for the second.

First: O=c1ccn(CCO)c(Cc2ccccc2)c1O
Second: COC(=O)c1nc(O)ccc1OCc1ccccc1
The melting point of the first is higher: 228 to 230 °C for the first, 91 to 92 °C for the second.

First: COC[C@H](C1CC1)n1cc(Cl)nc(Nc2cc(C)c(OC)nc2C)c1=O
Second: CCn1c(=O)ccc2cnc(Nc3ccc(OC)c(F)c3)nc21
The melting point of the first is lower: 99 to 100 °C for the first, 196 to 198 °C for the second.

First: O=C(NCCCCCCCNC(=O)c1ccc(OC(F)(F)F)cc1)c1ccc(OC(F)(F)F)cc1
Second: Cc1ccc(O)c(NC(=O)c2ccc(OCCCCc3ccccc3)cc2)c1
The melting point of the first is higher: 150 to 151 °C for the first, 138 to 140 °C for the second.

First: CN(CCN1CCN(c2cccc3c2OCCO3)CC1)c1cnn(C)c(=O)c1Cl
Second: Cc1nc2c(c(N3CCN(CCO)CC3)n1)OC(C)C(=O)N2 (stereo not given)
The melting point of the first is lower: 114 to 116 °C for the first, 160 to 161 °C for the second.

First: COc1ccc2c(C(=O)N(CC(=O)O)C(=O)N(C)C)cccc2c1C(F)(F)F
Second: COc1ccc(C(=O)OC(=O)NC(CO)Cc2ccc(O)cc2)cc1OC (stereo not given)
The melting point of the first is lower: 145 to 147 °C for the first, 152 to 155 °C for the second.

Compared with `CC(C)(C)OC(=O)NCC/C=C/c1cncnc1`, `CC(C)(C)Oc1ccc(OC(=O)N2CCOCC2)cc1` is higher in melting point: 54 to 55.5 °C for the first, 129 to 130 °C for the second.

Compared with `CCCNC(=S)NS(=O)(=O)c1cc2c(cc1OC)OCC(NC(=O)c1cc(F)ccc1OC)C2` (stereo not given), `CNC(=O)NS(=O)(=O)c1cc(CCNC(=O)/C=C/c2cccs2)ccc1OC` is lower in melting point: 172 to 173 °C for the first, 120 °C for the second.

First: O=[N+]([O-])c1cc(Cl)c(CCl)c(Cl)c1
Second: CCNc1ccc(NCCO)cc1[N+](=O)[O-]
The melting point of the first is lower: 37 to 39 °C for the first, 106 °C for the second.

Compared with `CN=C1N(c2c(C)cccc2C)CCN1c1c(C)cccc1C`, `CCS(=O)(=O)N(C)C1CCN(c2ccccc2)c2ccccc21` (stereo not given) is lower in melting point: 180 to 181 °C for the first, 72 °C for the second.

Compared with `CCC(=O)NCC1CC12c1cc(OC)ccc1-c1ccc(OC)cc12` (stereo not given), `COC(=O)c1cc2ccc(SCc3ccc(OC)cc3)cc2nc1OC` is lower in melting point: 145 to 147 °C for the first, 133 to 134 °C for the second.

First: CS(=O)(=O)N=C(Oc1ccccc1)Oc1ccccc1
Second: O=C(O)c1c(OCc2ccccc2)ccc2ccccc12
The melting point of the first is lower: 124 to 126 °C for the first, 127 to 128 °C for the second.

Compared with `CC(C)C(C)(C)NC(N)=O`, `CC(C)(C)c1cc(C(=O)c2c[nH]c(SC#N)c2)cc(C(C)(C)C)c1O` is higher in melting point: 175 to 176 °C for the first, 230 to 231 °C for the second.

Compared with `Nc1cc2c(cc1N)OCOC2`, `CC1Cc2c(cc(O)cc2C(=O)O)O1` (stereo not given) is higher in melting point: 156 to 158 °C for the first, 225 to 227 °C for the second.

First: CCS(=O)(=O)N[C@H]1CC[C@H](CCN2CCC(c3cccc4c3CCO4)CC2)CC1
Second: NS(=O)(=O)c1ccc(NN=C2C(=O)Nc3ccc(C(=O)NCCN4CCOCC4)cc32)cc1
The melting point of the first is lower: 131 °C for the first, 210 to 212 °C for the second.

Compared with `OC(Cn1ccnc1)c1cccnc1` (stereo not given), `OC(CN1CCNC1=S)c1ccncc1` (stereo not given) is higher in melting point: 119 to 121 °C for the first, 204 °C for the second.

First: O=C1C=CC2=CN=C(C3CCCCC3)N3CCC(=C23)N1
Second: CS(=O)(=O)c1ccc(-c2cnn(-c3cccc(Cl)c3)c(=O)c2C2CCCC2)cc1
The melting point of the first is higher: 265 to 266 °C for the first, 155 to 157 °C for the second.

Compared with `CC(O)c1cccc(C=Cc2ccc3cc(F)ccc3n2)c1` (stereo not given), `COc1cc(C(C)=O)ccc1-c1ccc(F)cc1` is lower in melting point: 107 to 109 °C for the first, 75 to 77 °C for the second.

First: Oc1cc(Br)ccc1/C=N/c1ccccc1
Second: CN1C(=O)CN=C(c2ccccc2)c2cc(NO)ccc21
The melting point of the first is lower: 129 °C for the first, 211 to 213 °C for the second.

First: O=C(O)c1ccc(CN2C(=O)C3CCCC3=Nc3ccc(Cl)cc32)cc1 (stereo not given)
Second: CCOC(=O)c1cnc2ccc(C(=O)c3ccc(Cl)cc3)cc2c1O
The melting point of the first is lower: 251 to 255 °C for the first, greater than 300 °C for the second.

First: COCc1nc2c(OC)ccc(CCc3ccncc3)c2[nH]1
Second: COc1cc2c(cc1OCc1ccccc1)CCNC2c1ccccc1 (stereo not given)
The melting point of the first is higher: 154 to 156 °C for the first, 118 to 119 °C for the second.

Compared with `O=C(O)CCC/C=C\[C@@H]1C[C@@H](NS(=O)(=O)c2ccccc2)CN1S(=O)(=O)c1ccc(Cl)cc1`, `Cc1cccc(C(=O)O)c1N(C)S(=O)(=O)c1ccc(OCCCNC(=O)c2cc3ccccc3[nH]2)cc1` is higher in melting point: 121 to 123 °C for the first, 199 °C for the second.

Compared with `Cc1ccc(S(=O)(=O)OCC(COC(C)(C)C)OS(=O)(=O)c2ccc(C)cc2)cc1` (single isomer, unassigned; (+)), `Cc1cccc(-c2n[nH]cc2-c2ccc(F)c(-c3ccc(S(=O)(=O)CCO)cc3)c2)n1` is higher in melting point: 70 to 71 °C for the first, 88 to 90 °C for the second.

First: Cn1c(C#N)c(-c2ccc(F)cc2)c2ncccc2c1=O
Second: CN1CC(C(=O)c2ccc(Cc3ccc(F)cc3)o2)=C(O)C1=O
The melting point of the first is higher: 258 to 259 °C for the first, 141 to 143 °C for the second.

First: CS(=O)(=O)c1ccc(C2=C(Br)C(=O)C3(CCCC3)O2)cc1
Second: CC1(CN(c2ccc(Cl)cc2)S(C)(=O)=O)OCCO1
The melting point of the first is higher: 127 to 128 °C for the first, 84 to 85 °C for the second.

First: O=C(O)C(O)N1C(=O)CCN1c1cccc(F)c1 (stereo not given)
Second: COc1ccc2c(c1)C=C(C(=O)O)CCO2
The melting point of the first is lower: 115 to 116 °C for the first, 176 to 177 °C for the second.

First: COc1cc2ncnc(N3CCN(C(=S)Nc4ccc(C(F)(F)F)cc4)CC3)c2cc1OC
Second: Cc1cc(OCc2oc(-c3ccc(C(F)(F)F)cc3)nc2C)ccc1/C=C/C(=O)O
The melting point of the first is lower: 117 to 119 °C for the first, 155 to 165 °C for the second.

Compared with `COc1ccc2c(c1)c(Cc1nc(-c3cccc([N+](=O)[O-])c3)cs1)c(C)n2C(=O)c1ccc(Cl)cc1`, `O=C(O)c1cccc(Oc2cccc(-c3nnc(N(Cc4ccc(C(F)(F)P(=O)(O)O)c(Cl)c4)c4ccc(Cl)c(Cl)c4)s3)c2)c1` is higher in melting point: 162 to 164 °C for the first, 178 to 180 °C for the second.

First: CCCCCCCCCCCCCCC(O)C(O)C(N)CO (stereo not given)
Second: CC(C)N1CCN(c2ccc(C(=O)NCCCCCCCCCCCCO[N+](=O)[O-])cn2)CC1
The melting point of the first is higher: 132 to 134 °C for the first, 56 to 58 °C for the second.

First: O=C(OCCc1ccccc1)c1ccc2c(O)c(O)ccc2c1
Second: CCCc1c(C(=O)N(C)Cc2ccc3c(Br)c(O)ccc3c2)cnn1-c1ccccc1
The melting point of the first is lower: 164 to 166 °C for the first, 205 to 207 °C for the second.

First: CC(=O)Nc1ccc(S(=O)(=O)NC23CC4CC(CC(C4)C2)C3)cc1
Second: Cc1nc2cc(-c3ccc(C=C4SC(=O)NC4=O)cc3)cc(C34CC5CC(CC(C5)C3)C4)c2o1
The melting point of the first is lower: 290 °C for the first, 354 to 360 °C for the second.

First: CC(C)(C)c1ccc(-c2nc3ccc([N+](=O)[O-])cc3c(=O)o2)cc1
Second: CC(C)c1nn(-c2ccccc2)c(-c2ccc(F)cc2)c1CC[C@H]1C[C@H](O)CC(=O)O1 (relative stereo)
The melting point of the first is higher: 159 to 161 °C for the first, 157 to 159 °C for the second.

Compared with `COc1ncc(Br)cc1C(O)C=Cc1ccc(Cl)c(Cl)c1` (stereo not given), `CCOC(=O)c1cc(NC(=O)C(N)Cc2ccc(Cl)c(Cl)c2)c[nH]1` (stereo not given) is lower in melting point: 149 to 150 °C for the first, 134 to 136 °C for the second.

First: CCOC(=O)N1Cc2ccccc2C(Oc2cccc(C(F)(F)F)c2)C1 (stereo not given)
Second: O=C(OCc1ccccc1)C(C(=O)OCc1ccccc1)c1ncc(C(F)(F)F)cc1[N+](=O)[O-]
The melting point of the first is higher: 98 to 100 °C for the first, 82 to 84 °C for the second.

Compared with `COC(=O)CCC(=NOCc1ccc(OCCc2nc(-c3ccccc3)oc2C)cc1)c1ccccc1`, `O=C1C(c2ccccc2)=C(c2ccccc2)C(=O)N1Cc1ccccc1F` is higher in melting point: 73 to 74 °C for the first, 113 to 114 °C for the second.

First: Cc1ccc(N2CCOCC2)c(N=C2NCCN2CCO)c1
Second: Nc1c(F)c(N2CCNCC2)cc2c1c(=O)c(C(=O)O)cn2C1COC1
The melting point of the first is lower: 135 to 136 °C for the first, 244 to 246 °C for the second.

First: CCn1c(C)nc2cc(C(N)=O)ccc21
Second: COC(=O)C1CCCC(=C(N)c2ccc(Cl)cc2)C(=O)C1 (stereo not given)
The melting point of the first is higher: 251 °C for the first, 154 to 155 °C for the second.

First: N#Cc1cn(C2CC(O)C(CO)O2)c(=O)[nH]c1=O (stereo not given)
Second: O=C1CCc2cc(Cl)ccc2C(=O)CCCN1
The melting point of the first is higher: 161 °C for the first, 142 to 144 °C for the second.

First: Cc1cc(=O)oc2cc(N(C)C(=O)C(=O)O)ccc12
Second: COCN1C(C)=C(C(=O)O)C(c2ccccc2)C(C(=O)OCOC(=O)C(C)(C)C)=C1C (single isomer, unassigned; (+))
The melting point of the first is higher: 162 to 164 °C for the first, 121 to 122 °C for the second.

Compared with `CCCc1ccc(OCCC(C)C)cc1O`, `COC(=O)c1ccc(CCNCC(O)c2ccccc2)cc1` (stereo not given) is higher in melting point: 40 to 40.5 °C for the first, 105 to 106 °C for the second.

Compared with `CC(=O)C1=C(O)C(=C(C)Nc2cc(NS(C)(=O)=O)cc(NS(C)(=O)=O)c2)C(=O)OC1=O`, `CC(=O)Nc1ccc(C)cc1Oc1c(NCc2ccccc2)cc(C(=O)O)cc1S(N)(=O)=O` is lower in melting point: 260 °C for the first, 203 °C for the second.

First: CC1(C)CC(OC(=O)CCCCCCCCC(=O)OC2CC(C)(C)N(OC(=O)c3ccccc3)C(C)(C)C2)CC(C)(C)N1OC(=O)c1ccccc1
Second: Cc1ccc(Cn2c(=O)c3c(N4CCN(C)CC4)cc(Cl)cc3n(Cc3ccccc3)c2=O)o1
The melting point of the first is lower: 92 to 100 °C for the first, 132 to 136 °C for the second.

First: CCOC(=O)C(=CNN(C)C=O)C(=O)c1cc(F)c(F)c(F)c1F
Second: COC(=O)[C@@H](C)OCC#Cc1cc(Cl)ccc1NS(=O)(=O)c1ccc2ncsc2c1
The melting point of the first is higher: 189 °C for the first, 136 °C for the second.

First: CN(C)c1ccc(CN2C(=O)C3(COc4cc5c(cc43)OCCO5)c3ccccc32)nc1 (stereo not given)
Second: CN(C)c1ccc(-c2nnc(N3CCC(O)CC3)nc2-c2ccc(N(C)C)cc2)cc1
The melting point of the first is higher: 229 to 236 °C for the first, 186 to 188 °C for the second.

First: Cn1c(C(F)(F)F)ccc(-c2cc(S)c(Cl)cc2F)c1=O
Second: N/C(=C1/Sc2ccccc2C1=O)c1ccccc1F
The melting point of the first is lower: 141 to 142 °C for the first, 156 to 158 °C for the second.

First: NC(=O)c1nnn(Cc2cc(Cl)c(S(=O)c3ccc(Cl)cc3)c(Cl)c2)c1N (stereo not given)
Second: Nc1nonc1-c1nc2ccccc2n1COc1ccc(F)cc1
The melting point of the first is higher: 195 to 197 °C for the first, 155 to 158 °C for the second.

First: Cc1cccc2c1Sc1nccnc1N2
Second: CC(C)n1cnc(N2CCc3ccccc3CC2)c(C#N)c1=O
The melting point of the first is higher: 165 to 166 °C for the first, 152 to 154 °C for the second.

Compared with `Cc1nc2c(C#N)c(C)nn2c(Cl)c1CCCl`, `CC1(C)C(=O)Oc2ccc3cc(C#N)c(C(n4cncn4)n4cncn4)cc3c21` is higher in melting point: 113 to 115 °C for the first, 240 to 242 °C for the second.
